Reference: PubChem BioAssay AID2060502 (Molecular Pharmacology Branch, DTP, NCI, 2025)

Test system: 885724-159-R-J1-PDC complex spheroid viability
Assay: Anticancer human tumor 885724-159-R-J1-PDC patient-derived pancreatic adenocarcinoma cell line growth inhibition [GQUAD]
Conditions: for IC50: curve of first compound; for viability, T/C: stronger effect = lower value
From the text: DNA G-quadruplex Stabilizer Agents in Combinations in Complex Spheroids
A high-throughput screen of multi-cell type tumor spheroids was designed to identify active combinations of DNA G-quadruplex stabilizer agents and targeted small molecules. Complex spheroids include a stromal component modeled by human endothelial cells (HUVEC) and fibroblasts modeled by human mesenchymal stem cells (MSCs). The concentration ranges selected for each drug and investigational agent were based upon clinically achievable concentrations if the clinical Cmax of the agent was known.
Compounds. The drugs and investigational agents: pidnarulex (CX-5461; NSC782164), APTO-253 (NSC789042), BRACO-19 (NSC847499), peposertib (NSC802822), ceralasertib (NSC780249), elimusertib (NSC800525), camonsertib (NSC841442), AZD-1390 (NSC803789), olaparib (NSC753686), talazoparib (NSC767125), ART-558 (NSC835418), sotorasib (NSC818433), MRTX-1133 (NSC836407), SN-38 (NSC673596), topotecan (NSC609699), etoposide (NSC141540), doxorubicin (NSC123127), gemcitabine (NSC613327), 5-fluorouracil (NSC19893), paclitaxel (NSC125973), vemurafenib (NSC761431), panobinostat (NSC761190), R-306465 (JNJ-16241199; NSC773264), adavosertib (NSC754352), TP-3654 (NSC805149), carboplatin (NSC241240), KSQ-4279 (NSC840948), and staurosporine (NSC755774) were obtained from the National Cancer Institute (NCI) Developmental Therapeutics Program Chemical Repository (34). The FDA-approved anticancer drug set is available from the NCI Developmental Therapeutics Program. […] The stock solutions were prepared in dimethyl sulfoxide (DMSO, Sigma-Aldrich, St. Louis, MO, cat. D2650) at 800-fold the tested concentration and stored at -70 degrees C prior to their use. All drugs and investigational agents were tested over a range starting from a high concentration at or near the clinical Cmax and decreasing in half-log increments. If the clinical Cmax for an agent had not been determined, the highest concentration tested was 10 microM.
2.3 Cell Culture. All cells were maintained in an incubator at 37 degrees C and 5% CO2 with 95% humidity. The PDC lines were cultured according to standard operating procedures established by the NCI PDMR. All PDCs were thawed and cultured in Matrigel-coated flasks prepared with a working solution of 1X Ham's F-12 nutrient mix, without supplementation (Invitrogen, cat. 11765054), 100 U/mL penicillin-streptomycin (Invitrogen, cat. 15140122), and 2.5% Matrigel (Corning Inc., cat. 354248) for the first three passages. The 857933-349-R-J2-PDC line was cultured in 6C/Colon 1B media, which includes advanced DMEM/F-12 (Thermo Fisher Scientific, cat. 12634028), 10 mM HEPES (Thermo Fisher Scientific, cat. 15630080), 1X GlutaMAX supplement (Thermo Fisher Scientific, cat. 35050061), 0.1 mg/mL primocin (InvivoGen, cat. ant-pm-2), 10% defined fetal bovine serum, heat inactivated (HyClone Laboratories Inc., cat. SH30070.03HI), 50% L-WRN conditioned media (ATCC, cat. CRL-3276), 1.25 mM N-Acetyl-L-cysteine (Sigma-Aldrich, cat. A9165), 10 mM nicotinamide (Sigma-Aldrich, cat. N0636), 1X B-27 supplement (Thermo Fisher Scientific, cat. 17504044), 1X N-2 supplement (Thermo Fisher Scientific, cat. 17502048), 10 microM Y-27632 dihydrochloride (Tocris Bioscience, cat. 1254), and 50 ng/mL human EGF recombinant protein (Thermo Fisher Scientific, cat. PHG0311). The 485176-168-R4-J1-PDC line was cultured in Panc media, which includes all 6C/Colon 1B media components plus 100 ng/mL human FGF-10 (Thermo Fisher Scientific, cat. 100-26), 500 nM SB-431542 (Selleckchem, cat. S1067), and gastrin (Tocris, cat. 3006).
[…]

[1] = second compound 0.0316 µM, first compound 0.000999 µM
[2] = second compound 0.0316 µM, first compound 0.00316 µM
[3] = second compound 0.0316 µM, first compound 0.00999 µM
[4] = second compound 0.0316 µM, first compound 0.0316 µM
[5] = second compound 0.0316 µM, first compound 0.0999 µM
[6] = second compound 0.0316 µM, first compound 0.316 µM
[7] = second compound 0.1 µM, first compound 0.000999 µM
[8] = second compound 0.1 µM, first compound 0.00316 µM
[9] = second compound 0.1 µM, first compound 0.00999 µM
[10] = second compound 0.1 µM, first compound 0.0316 µM
[11] = second compound 0.1 µM, first compound 0.0999 µM
[12] = second compound 0.1 µM, first compound 0.316 µM
[13] = second compound 0.316 µM, first compound 0.000999 µM
[14] = second compound 0.316 µM, first compound 0.00316 µM
[15] = second compound 0.316 µM, first compound 0.00999 µM
[16] = second compound 0.316 µM, first compound 0.0316 µM
[17] = second compound 0.316 µM, first compound 0.0999 µM
[18] = second compound 0.316 µM, first compound 0.316 µM
[19] = second compound 1 µM, first compound 0.000999 µM
[20] = second compound 1 µM, first compound 0.00316 µM
[21] = second compound 1 µM, first compound 0.00999 µM
[22] = second compound 1 µM, first compound 0.0316 µM
[23] = second compound 1 µM, first compound 0.0999 µM
[24] = second compound 1 µM, first compound 0.316 µM
[25] = second compound 3.16 µM, first compound 0.000999 µM
[26] = second compound 3.16 µM, first compound 0.00316 µM
[27] = second compound 3.16 µM, first compound 0.00999 µM
[28] = second compound 3.16 µM, first compound 0.0316 µM
[29] = second compound 3.16 µM, first compound 0.0999 µM
[30] = second compound 3.16 µM, first compound 0.316 µM
[31] = second compound 10 µM, first compound 0.000999 µM
[32] = second compound 10 µM, first compound 0.00316 µM
[33] = second compound 10 µM, first compound 0.00999 µM
[34] = second compound 10 µM, first compound 0.0316 µM
[35] = second compound 10 µM, first compound 0.0999 µM
[36] = second compound 10 µM, first compound 0.316 µM
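Further: spheroids exposed to agents for seven days before readout.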
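Wherever viability, T/C is given: percent of vehicle control viability where 100% = DMSO wells.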

Question: With `CC[C@@]1(O)C(=O)OCc2c1cc1n(c2=O)Cc2cc3c(CN(C)C)c(O)ccc3nc2-1` + Cc1cnc(CNC(=O)c2c(=O)c3ccc(N4CCCN(C)CC4)nc3n3c2sc2ccccc23)cn1 as the molecule, how does the IC50 (second compound 0.0316 µM) read?
Answer: > 316 nM

Question: What about the IC50 (second compound 0.1 µM) of the same molecule?
Answer: > 316 nM

Question: What about the IC50 (second compound 0.316 µM) of the same molecule?
Answer: > 316 nM

Question: And the IC50 (second compound 1 µM)?
Answer: > 316 nM

Question: And the IC50 (second compound 3.16 µM)?
Answer: > 316 nM

Question: What about the IC50 (second compound 10 µM) of the same molecule?
Answer: > 316 nM

Question: And the viability, T/C [1]?
Answer: 117%

Question: And the viability, T/C [2]?
Answer: 95.5%

Question: What about the viability, T/C [3] of the same molecule?
Answer: 103%

Question: And the viability, T/C [4]?
Answer: 106%

Question: And the viability, T/C [5]?
Answer: 89.1%

Question: What about the viability, T/C [6] of the same molecule?
Answer: 65.5%

Question: What about the viability, T/C [7] of the same molecule?
Answer: 125%

Question: What about the viability, T/C [8] of the same molecule?
Answer: 98.7%

Question: And the viability, T/C [9]?
Answer: 101%

Question: What about the viability, T/C [10] of the same molecule?
Answer: 103%

Question: And the viability, T/C [11]?
Answer: 85.5%

Question: And the viability, T/C [12]?
Answer: 75.2%

Question: And the viability, T/C [13]?
Answer: 96.1%

Question: What about the viability, T/C [14] of the same molecule?
Answer: 104%

Question: And the viability, T/C [15]?
Answer: 87.6%

Question: What about the viability, T/C [16] of the same molecule?
Answer: 95%

Question: And the viability, T/C [17]?
Answer: 100%

Question: What about the viability, T/C [18] of the same molecule?
Answer: 70.1%

Question: And the viability, T/C [19]?
Answer: 88.6%

Question: And the viability, T/C [20]?
Answer: 84.1%

Question: What about the viability, T/C [21] of the same molecule?
Answer: 95.2%

Question: What about the viability, T/C [22] of the same molecule?
Answer: 80.3%

Question: And the viability, T/C [23]?
Answer: 87.8%

Question: And the viability, T/C [24]?
Answer: 70.3%

Question: And the viability, T/C [25]?
Answer: 74.8%

Question: What about the viability, T/C [26] of the same molecule?
Answer: 69.5%

Question: And the viability, T/C [27]?
Answer: 75%

Question: And the viability, T/C [28]?
Answer: 75.9%

Question: And the viability, T/C [29]?
Answer: 73.9%

Question: And the viability, T/C [30]?
Answer: 64.5%

Question: And the viability, T/C [31]?
Answer: 70.7%

Question: What about the viability, T/C [32] of the same molecule?
Answer: 81.1%

Question: What about the viability, T/C [33] of the same molecule?
Answer: 72.7%

Question: What about the viability, T/C [34] of the same molecule?
Answer: 74.2%

Question: And the viability, T/C [35]?
Answer: 80%

Question: What about the viability, T/C [36] of the same molecule?
Answer: 69.1%

Question: Which IC50 (second compound 0.0316 µM) does the source give for `Cn1ncnc1[C@H]1c2n[nH]c(=O)c3cc(F)cc(c23)N[C@@H]1c1ccc(F)cc1` + Cc1cnc(CNC(=O)c2c(=O)c3ccc(N4CCCN(C)CC4)nc3n3c2sc2ccccc23)cn1 here?
Answer: > 316 nM

Question: What about the IC50 (second compound 0.1 µM) of the same molecule?
Answer: > 316 nM

Question: What about the IC50 (second compound 0.316 µM) of the same molecule?
Answer: > 316 nM

Question: And the IC50 (second compound 1 µM)?
Answer: > 316 nM

Question: And the IC50 (second compound 3.16 µM)?
Answer: > 316 nM

Question: What about the IC50 (second compound 10 µM) of the same molecule?
Answer: > 316 nM

Question: What about the viability, T/C [1] of the same molecule?
Answer: 90.3%

Question: And the viability, T/C [2]?
Answer: 107%

Question: And the viability, T/C [3]?
Answer: 96.3%

Question: And the viability, T/C [4]?
Answer: 108%

Question: And the viability, T/C [5]?
Answer: 90.3%

Question: And the viability, T/C [6]?
Answer: 92.7%

Question: What about the viability, T/C [7] of the same molecule?
Answer: 117%

Question: What about the viability, T/C [8] of the same molecule?
Answer: 115%

Question: What about the viability, T/C [9] of the same molecule?
Answer: 97.1%

Question: And the viability, T/C [10]?
Answer: 100%

Question: What about the viability, T/C [11] of the same molecule?
Answer: 98.8%

Question: What about the viability, T/C [12] of the same molecule?
Answer: 92.2%

Question: And the viability, T/C [13]?
Answer: 90.1%

Question: And the viability, T/C [14]?
Answer: 94.5%

Question: And the viability, T/C [15]?
Answer: 104%

Question: What about the viability, T/C [16] of the same molecule?
Answer: 96.3%

Question: And the viability, T/C [17]?
Answer: 96.6%

Question: And the viability, T/C [18]?
Answer: 98.7%

Question: What about the viability, T/C [19] of the same molecule?
Answer: 86.8%

Question: And the viability, T/C [20]?
Answer: 85.6%

Question: And the viability, T/C [21]?
Answer: 82.3%

Question: And the viability, T/C [22]?
Answer: 79.2%

Question: What about the viability, T/C [23] of the same molecule?
Answer: 87.4%

Question: What about the viability, T/C [24] of the same molecule?
Answer: 84.2%

Question: What about the viability, T/C [25] of the same molecule?
Answer: 79.8%

Question: What about the viability, T/C [26] of the same molecule?
Answer: 76.1%

Question: What about the viability, T/C [27] of the same molecule?
Answer: 78.9%

Question: What about the viability, T/C [28] of the same molecule?
Answer: 76.1%

Question: What about the viability, T/C [29] of the same molecule?
Answer: 81%

Question: What about the viability, T/C [30] of the same molecule?
Answer: 72.6%

Question: And the viability, T/C [31]?
Answer: 82.4%

Question: And the viability, T/C [32]?
Answer: 88.2%

Question: What about the viability, T/C [33] of the same molecule?
Answer: 83%

Question: And the viability, T/C [34]?
Answer: 89.4%

Question: And the viability, T/C [35]?
Answer: 105%

Question: And the viability, T/C [36]?
Answer: 94.6%
